One data set deals with S. marcescens 10100. Briefly: Antibacterial activity (MIC), standard method of the Japan Society of Chemotherapy. Type of data set: cell-based. The procedure:
(§1) The antimicrobial activities of the compounds of the present invention were determined according to a standard method designated by the Japan Society of Chemotherapy. The results are expressed by MIC (μg/mL) (Table 1). In Table 1, S. aureus 870307 and S. pneumonia J24 are quinolone-resistant bacteria.

The test system of a further data set is K. pneumoniae TYPE I. The description is as above. The data set is classed as cell-based. The procedure:
as §1

In another data set the test system is P. Vulgalis 08601. The data set is described as above. Type of data set: cell-based. The procedure:
as §1

For another data set, the system named is S. aureus 870307. The description is as above. Type of data set: cell-based. The procedure: as §1
For the next data set, the system named is E. faevcalis ATCC 19433. Described as above. Type of data set: cell-based. The procedure: as §1
For a further data set, the system named is P. aeruginosa 32121. The data set is described as above. The data set is classed as cell-based. The procedure: as §1
For a further data set, the system named is S. pneumoniae J24. Described as above. Type of data set: cell-based. The procedure: as §1
The test system of another data set is S. epidermidis 56500. The data set is described as above. Type of data set: cell-based. The procedure:
as §1

Another data set concerns E. coli NIHJ. The data set is described as above. Type of data set: cell-based. The procedure:
as §1

Another data set has as its system P. aeruginosa 32104. The data set is described as above. The data set is classed as cell-based. The procedure:
as §1

In the next data set the test system is S. flexneri 2A 5503. Described as above. Type of data set: cell-based. The procedure: as §1
The next data set deals with S. maltophilia IID 1275. The data set is described as above. Type of data set: cell-based. The procedure:
as §1

Another data set deals with S. pyogenes G-36. The data set is described as above. The data set is classed as cell-based. The procedure: as §1
In another data set the test system is S. aureus FDA 209P. Described as above. Type of data set: cell-based. The procedure:
as §1

The test system of data set [1] is Chinese hamster lung (CHL/IU) cells. The data set is described as follows: Effect of inducing chromosomal aberration. The data set is classed as cell-based. Particulars: for Percentile induction of structural aberration (TA %): 24 hours. The procedure:
From each sample solution, samples to be tested having a concentration of 1, 3, 10, 30, 50, and 100 μg/mL (as reduced to free form) were prepared. As a negative control, 0.1 mol/L NaOH was employed.
Chinese hamster lung (CHL/IU) cells in logarithmic growth phase were employed. The cells were treated in a culture solution containing each sample to be tested for 24 hours. Subsequently, a chromosome specimen was prepared from the thus-treated cells. The culture solution employed was an Eagle's MEM (product of NISSUI PHARMACEUTICAL CO., LTD.) medium containing 15% fetal bovine serum (15% FBS-MEM).
In each sample concentration, 100 cells during metaphase were observed, to thereby record types and numbers of the chromosomal aberration.

Where [2] appears, read: S. aureus 870307, quinolone-resistant.
Where [3] appears, read: S. pneumoniae J24, quinolone-resistant.

Here are results for 15 compounds from patent US7977327B2, “Substituted pyrrolidine derivative” (Daiichi Sankyo Company, Limited, priority 2004, dated 2011).

Molecules are shown by their SMILES. In brackets after ≈: the same amount, converted by molar mass. Counter-ions that a name gives are not always drawn. Like-named read-outs stand apart in the source and are kept apart here. Marks after values point to notes of the source that are not given here. Some results are limits rather than exact numbers.

As a reminder, the MIC is the least concentration at which growth counts as inhibited. With `C[C@H]1COc2c(N3CCN(C)CC3)c(F)cc3c(=O)c(C(=O)O)cn1c23` [LVFX, reference compound], the MIC in the data set on S. marcescens 10100 (S. marcescens 10100) is 0.1 µg/mL (≈ 0.277 µM); in the data set on K. pneumoniae TYPE I (K. pneumoniae TYPE I), 0.1 µg/mL (≈ 0.277 µM); in the data set with P. Vulgalis 08601 (P. Vulgalis 08601) it was 0.012 µg/mL (≈ 0.0332 µM); against S. aureus 870307 (setting [2]) it was more than 6.25 µg/mL; with E. faevcalis ATCC 19433 (E. faevcalis ATCC 19433), 0.78 µg/mL (≈ 2.16 µM); in the data set with P. aeruginosa 32121 (P. aeruginosa 32121), 0.1 µg/mL (≈ 0.277 µM). For the same compound, the MIC is 0.78 µg/mL (≈ 2.16 µM) against S. pneumoniae J24 (setting [3]); 0.39 µg/mL (≈ 1.08 µM) against S. epidermidis 56500 (S. epidermidis 56500); 0.012 µg/mL (≈ 0.0332 µM) against E. coli NIHJ (E. coli NIHJ); 0.2 µg/mL (≈ 0.553 µM) in the data set with P. aeruginosa 32104 (P. aeruginosa 32104); 0.025 µg/mL (≈ 0.0692 µM) against S. flexneri 2A 5503; 0.39 µg/mL (≈ 1.08 µM) in the data set with S. maltophilia IID 1275 (S. maltophilia IID 1275). Moreover, the MIC with S. pyogenes G-36 (S. pyogenes G-36) was 0.78 µg/mL (≈ 2.16 µM); against S. aureus FDA 209P (S. aureus FDA 209P) it was 0.2 µg/mL (≈ 0.553 µM).

`CC[C@H]1CN(c2c(F)c(N)c3c(=O)c(C(=O)O)cn(C4CC4)c3c2C)C[C@H]1N` [Comparative Compound E, 5-amino-7-[(3S,4S)-3-amino-4-ethyl-1-pyrrolidinyl]-1-cyclopropyl-6-fluoro-1,4-dihydro-8-methyl-4-oxoquinoline-3-carboxylic acid, reference compound]: the “Percentile induction of structural aberration (TA %)” value in [1] (1 μg/mL, CHL/IU cells) is 0%; in [1] (3 μg/mL, CHL/IU cells), 3%; in [1] (10 μg/mL, CHL/IU cells) it was 1%; in data set [1] (30 μg/mL, CHL/IU cells) it was 6%; in [1] (50 μg/mL, CHL/IU cells), “TOX*^1”; in [1] (100 μg/mL, CHL/IU cells), “TOX*^1”. Besides, the “Concentration at which C-mitosis and ski-pair-like chromosomes are observed considerably” value in data set [1] (CHL/IU cells) was not below 50 µg/mL. The “Significant increase in number of the cells exhibiting chromosomal aberration” value in data set [1] (at a concentration of up to 30 μg/mL) is listed as “not observed”.

The term melting point denotes the temperature of the solid-liquid transition. In turn, `CC[C@H]1CN(c2ccc3c(=O)c(C(=O)O)cn([C@@H]4C[C@@H]4F)c3c2C)C[C@H]1N` [Compound No. 14, 7-[(3S,4S)-3-Amino-4-ethylpyrrolidine-1-yl]-1-[(1R,2S)-2-fluorocyclopropyl]-8-methyl-1,4-dihydro-4-oxoquinoline-3-carboxylic acid] displayed a melting point of 232 to 234 °C.

As to `CC[C@H]1CN(c2c(F)cc3c(=O)c(C(=O)O)cn(C4CC4)c3c2C)C[C@H]1N` [Comparative Compound D, 7-[(3S,4S)-3-Amino-4-ethylpyrrolidine-1-yl]-1-cyclopropyl-6-fluoro-8-methyl-1,4-dihydro-4-oxoquinoline-3-carboxylic acid, reference compound], the “Percentile induction of structural aberration (TA %)” value in [1] (1 μg/mL, CHL/IU cells) is listed as 4%; in [1] (3 μg/mL, CHL/IU cells), 0%; in data set [1] (10 μg/mL, CHL/IU cells), 3%; in data set [1] (30 μg/mL, CHL/IU cells), 63* %; in data set [1] (50 μg/mL, CHL/IU cells) it was 98* %; in data set [1] (100 μg/mL, CHL/IU cells), 100* %.

In turn, `CCC[C@H]1CN(c2c(F)cc3c(=O)c(C(=O)O)cn4c3c2OC[C@@H]4C)C[C@H]1N` (as salt: hydrochloride) gave a melting point of 225 to 231 °C.

Compound `CCC[C@H]1CN(c2c(F)cc3c(=O)c(C(=O)O)cn([C@@H]4C[C@@H]4F)c3c2C)C[C@H]1N` (as salt: hydrochloride) [Compound No. 5, 7-[(3S,4S)-3-Amino-4-propylpyrrolidin-1-yl]-6-fluoro-1-[(1R,2S)-2-fluorocyclopropyl]-8-methyl-1,4-dihydro-4-oxoquinoline-3-carboxylic acid-hydrochloride] had a melting point of 197 to 207 °C.

`CN[C@@H]1CN(c2c(F)cc3c(=O)c(C(=O)O)cn([C@@H]4C[C@@H]4F)c3c2C)C[C@@H]1C(C)C` [Compound No. 17, 6-Fluoro-1-[(1R,2S)-2-fluorocyclopropyl]-7-[(3S,4S)-3-isopropyl-4-methylaminopyrrolidin-1-yl]-8-methyl-1,4-dihydro-4-oxoquinoline-3-carboxylic acid] had a melting point of 168 to 171 °C.

Regarding `CC[C@H]1CN(c2c(F)cc3c(=O)c(C(=O)O)cn4c3c2OC[C@@H]4C)C[C@H]1NC` [Compound No. 13, (3S)-10-[(3S,4S)-3-Ethyl-4-methylaminopyrrolidin-1-yl]-9-fluoro-2,3-dihydro-3-methyl-7-oxo-7H-pyrido[1,2,3-de][1,4]benzoxazine-6-carboxylic acid], the melting point was 211 to 213 °C.

On to `CC[C@H]1CN(c2c(F)cc3c(=O)c(C(=O)O)cn([C@@H]4C[C@@H]4F)c3c2C)C[C@H]1NC` [Compound No. 15, 7-[(3S,4S)-3-Ethyl-4-methylaminopyrrolidin-1-yl]-6-fluoro-1-[(1R,2S)-2-fluorocyclopropyl]-8-methyl-1,4-dihydro-4-oxoquinoline-3-carboxylic acid], for which the melting point was 223 to 225 °C.

As to `O=C(O)c1cn(C2CC2)c2cc(N3CCNCC3)c(F)cc2c1=O` [CPFX, reference compound], the MIC in the data set with S. marcescens 10100 (S. marcescens 10100) is 0.025 µg/mL (≈ 0.0754 µM); with K. pneumoniae TYPE I (K. pneumoniae TYPE I) it was 0.025 µg/mL (≈ 0.0754 µM); with P. Vulgalis 08601 (P. Vulgalis 08601) it was “≦0.003 μg/mL”; with S. aureus 870307 (setting [2]) it was more than 6.25 µg/mL; against E. faevcalis ATCC 19433 (E. faevcalis ATCC 19433), 0.78 µg/mL (≈ 2.35 µM); in the data set with P. aeruginosa 32121 (P. aeruginosa 32121) it was 0.025 µg/mL (≈ 0.0754 µM). Also, the MIC against S. pneumoniae J24 (setting [3]) was 0.39 µg/mL (≈ 1.18 µM); in the data set with S. epidermidis 56500 (S. epidermidis 56500), 0.2 µg/mL (≈ 0.604 µM); with E. coli NIHJ (E. coli NIHJ), “≦0.003 μg/mL”; in the data set on P. aeruginosa 32104 (P. aeruginosa 32104) it was 0.05 µg/mL (≈ 0.151 µM); against S. flexneri 2A 5503 it was 0.006 µg/mL (≈ 0.0181 µM); against S. maltophilia IID 1275 (S. maltophilia IID 1275), 0.78 µg/mL (≈ 2.35 µM). Further, the MIC with S. pyogenes G-36 (S. pyogenes G-36) came out at 1.56 µg/mL (≈ 4.71 µM); against S. aureus FDA 209P (S. aureus FDA 209P) it was 0.1 µg/mL (≈ 0.302 µM).

The compound `CC[C@H]1CN(c2c(F)cc3c(=O)c(C(=O)O)cn([C@@H]4C[C@@H]4F)c3c2OC)C[C@H]1NC` [Compound No. 12, 7-[(3S,4S)-3-Ethyl-4-methylaminopyrrolidin-1-yl]-6-fluoro-1-[(1R,2S)-2-fluorocyclopropyl]-8-methoxy-1,4-dihydro-4-oxoquinoline-3-carboxylic acid] had a melting point of 143 to 145 °C.

Turning to `CCC[C@H]1CN(c2c(F)cc3c(=O)c(C(=O)O)cn([C@@H]4C[C@@H]4F)c3c2C)C[C@H]1N` [Compound No. 5, 7-[(3S,4S)-3-Amino-4-propylpyrrolidin-1-yl]-6-fluoro-1-[(1R,2S)-2-fluorocyclopropyl]-8-methyl-1,4-dihydro-4-oxoquinoline-3-carboxylic acid-hydrochloride], the MIC in the data set with S. marcescens 10100 (Serratia marcescens, 10100) turned out to be 0.05 µg/mL; against K. pneumoniae TYPE I (Klebsiella pneumoniae), 0.025 µg/mL; with P. Vulgalis 08601, 0.012 µg/mL; with S. aureus 870307 (Staphylococcus aureus, 870307), 0.2 µg/mL; in the data set with E. faevcalis ATCC 19433, 0.1 µg/mL; in the data set on P. aeruginosa 32121 (Pseudomonas aeruginosa, 32121) it was 0.1 µg/mL. Besides, the MIC with S. pneumoniae J24 (Streptococcus pneumoniae, J24) was determined as 0.025 µg/mL; in the data set on S. epidermidis 56500 (Staphylococcus epidermidis, 56500) it was 0.025 µg/mL; against E. coli NIHJ (Escherichia coli), 0.006 µg/mL; in the data set with P. aeruginosa 32104 (Pseudomonas aeruginosa, 32104), 0.2 µg/mL; with S. flexneri 2A 5503 (Shigella flexneri, 2A5503, read-out: MIC), 0.006 µg/mL; in the data set on S. maltophilia IID 1275 (Stenotrophomonas maltophilia, IID1275), 0.05 µg/mL. Further, the minimum inhibitory concentration (MIC) against S. pyogenes G-36 (Streptococcus pyogenes, G36) was 0.025 µg/mL; in the data set on S. aureus FDA 209P (Staphylococcus aureus, FDA209P), 0.006 µg/mL.

Consider `C[C@H]1COc2c(N3C[C@@H](N)[C@@H](C4CC4)C3)c(F)cc3c(=O)c(C(=O)O)cn1c23` [Compound No. 9, (3S)-10-[(3S,4S)-3-Amino-4-cyclopropylpyrrolidin-1-yl]-9-fluoro-2,3-dihydro-3-methyl-7-oxo-7H-pyrido[1,2,3-de][1,4]benzoxazine-6-carboxylic acid], for which the melting point is 218 to 220 °C.

Compound `CCC[C@H]1CN(c2c(F)cc3c(=O)c(C(=O)O)cn([C@@H]4C[C@@H]4F)c3c2OC)C[C@H]1N` [Compound No. 4, 7-[(3S,4S)-3-Amino-4-propylpyrrolidin-1-yl]-6-fluoro-1-[(1R,2S)-2-fluorocyclopropyl]-8-methoxy-1,4-dihydro-4-oxoquinoline-3-carboxylic acid] had a melting point of 79 to 83 °C.

For the compound `C=C[C@H]1CN(c2c(F)cc3c(=O)c(C(=O)O)cn4c3c2OC[C@@H]4C)C[C@H]1N` [Compound No. 7, (3S)-10-[(3S,4S)-3-Amino-4-vinyl-1-pyrrolidinyl]-9-fluoro-2,3-dihydro-3-methyl-7-oxo-7H-pyrido[1,2,3-de][1,4]benzoxazine-6-carboxylic acid], the melting point lay in the range of 238 to 240 °C.
